The text below walks through data of patent publication US20180066070A1, “ACETYLATED PCSK9” (UNIVERSITAT ZURICH, priority 2015, published 2018).

In one test the test system is RAW 264.7 macrophages. The experiment in a line: Activity of acetylated vs deacetylated recombinant PCSK9 on RAW 264.7 macrophages (western blot for LDLR, PCSK9). The format is cell-based, murine. As to conditions: recombinant PCSK9 pretreated with pCAF and acetyl-CoA vs SIRT1 and NAD+, 15 mins (FIG. 7). On the procedure: Recombinant PCSK9 pretreated with SIRT1 and NAD+ or pCAF and acetyl-CoA were added on RAW 264.7 macrophages for 15 mins and lysed, separated by SDS-PAGE and blotted for LDLR, PCSK9 and b-actin. Representative bar graphs of LDLR, PCSK9 normalized to b-actin and PCSK9 expression normalized to LDLR expression.
Human HepG2 hepatocytes (American Type Culture Collection, Manassas, Va.) and murine RAW 264.7 cells (Mouse leukaemic monocyte macrophage cell line) were cultured in DMEM containing 10% fetal bovine serum (v/v). AML12 mouse hepatoma cells were cultured in a 1:1 (v/v) mixture of DMEM and Ham's F12 medium supplemented with insulin (5 μg ml-1), transferrin (5 μg ml-1), selenium (5 ng ml-1), dexamethasone (40 ng ml-1), and 10% fetal bovine serum (v/v). Where indicated, AML12 cells were exposed to 10 μM SRT3025 in 1% DMSO (v/v). The cells were maintained in a humidified atmosphere with 5% CO2 at 37° C.
Substrate protein, PCSK9 was incubated with 2 μg of recombinant pCAF and 50 μM acetyl-CoA in 20 μL of acetylation buffer (250 mM Tris-HCl [pH9.0], 20 mM MgCl2, 250 mM NaCl, 2.5 mM DTT). Reaction mixtures were incubated at 37° C. for 1 hour. Reaction was stopped by freezing. […] The reactions were analyzed by western blotting using anti-PCSK9 antibody (Abcam) to verify loading and anti-acetyl lysine (Cell signalling) to verify acetylation.

The target of test [1] is T1, SIRT1 (Mus musculus, UniProt Q923E4).
T1 construct: host or cells: ApoE-/- mice (endogenous protein of the animal)
T1 sequence (Q923E4 1-737): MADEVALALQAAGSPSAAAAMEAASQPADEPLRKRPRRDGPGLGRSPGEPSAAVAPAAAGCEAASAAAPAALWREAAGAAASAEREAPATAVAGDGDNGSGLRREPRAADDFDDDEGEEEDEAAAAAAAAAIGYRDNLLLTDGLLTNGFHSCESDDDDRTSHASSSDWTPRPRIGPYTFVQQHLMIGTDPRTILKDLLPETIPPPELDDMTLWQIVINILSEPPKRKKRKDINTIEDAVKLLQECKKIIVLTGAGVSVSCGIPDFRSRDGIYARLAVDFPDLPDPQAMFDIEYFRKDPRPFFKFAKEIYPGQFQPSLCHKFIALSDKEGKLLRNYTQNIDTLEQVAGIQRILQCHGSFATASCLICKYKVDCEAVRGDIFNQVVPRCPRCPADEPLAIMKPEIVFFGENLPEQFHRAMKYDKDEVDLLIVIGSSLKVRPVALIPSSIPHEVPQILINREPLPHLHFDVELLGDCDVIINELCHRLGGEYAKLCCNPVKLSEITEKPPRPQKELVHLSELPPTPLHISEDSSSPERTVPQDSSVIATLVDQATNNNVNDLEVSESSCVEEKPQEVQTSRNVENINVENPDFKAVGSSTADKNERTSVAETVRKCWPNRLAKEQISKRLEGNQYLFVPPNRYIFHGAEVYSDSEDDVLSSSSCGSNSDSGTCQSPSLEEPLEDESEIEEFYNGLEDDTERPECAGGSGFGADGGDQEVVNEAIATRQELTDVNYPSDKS
As to conditions: ApoE-/- mice; cited from earlier work.

Test [2] addresses T2, SIRT1 (Homo sapiens, UniProt Q96EB6).
T2 sequence (Q96EB6 1-747): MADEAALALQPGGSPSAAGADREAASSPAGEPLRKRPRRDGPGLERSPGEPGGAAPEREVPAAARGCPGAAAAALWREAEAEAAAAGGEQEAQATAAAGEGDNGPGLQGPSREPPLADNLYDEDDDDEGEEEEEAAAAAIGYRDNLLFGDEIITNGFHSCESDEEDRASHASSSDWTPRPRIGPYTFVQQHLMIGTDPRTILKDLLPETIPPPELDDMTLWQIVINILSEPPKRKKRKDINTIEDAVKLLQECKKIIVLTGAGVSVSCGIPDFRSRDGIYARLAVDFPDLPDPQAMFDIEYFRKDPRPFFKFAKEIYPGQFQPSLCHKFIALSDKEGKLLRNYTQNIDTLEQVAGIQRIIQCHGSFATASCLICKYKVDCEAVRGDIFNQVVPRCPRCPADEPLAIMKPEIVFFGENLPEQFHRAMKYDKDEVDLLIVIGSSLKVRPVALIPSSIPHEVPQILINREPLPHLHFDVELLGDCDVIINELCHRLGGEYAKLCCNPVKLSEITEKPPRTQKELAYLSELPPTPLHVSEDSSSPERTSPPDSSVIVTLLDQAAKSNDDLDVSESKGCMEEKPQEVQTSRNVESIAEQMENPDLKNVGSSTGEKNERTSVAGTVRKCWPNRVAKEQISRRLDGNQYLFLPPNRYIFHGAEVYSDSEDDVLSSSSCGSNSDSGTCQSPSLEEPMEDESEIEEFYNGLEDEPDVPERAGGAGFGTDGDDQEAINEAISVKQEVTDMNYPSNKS
The experiment in a line: Fluorogenic peptide deacetylation assay. As to conditions: increasing concentrations of SRT1720 (1 μM, 10 μM, 100 μM, 1 mM), 1 μg SIRT1, acetyl-Lys421 PCSK9-AMC peptide, compared to negative and positive controls (FIG. 4). In kind it is biochemical. On the procedure:
To analyse the deacetylation activity of SIRT1 on PCSK9, an acetylated PCSK9 peptide was designed with acetylated lysine 421 (Lys421)-tagged to an AMC fluorophore. The acetyl-PCSK9-AMC peptide was dissolved in DMSO and incubated with 1 μg SIRT1 with 1 μM, 10 μM, 100 μM and 1 mM SIRT1 activator SRT1720 in the deacetylation assay buffer containing 50 mM Tris-HCl [pH8.0], 1 mM MgCl2, 125 mM NaCl, 2.5 mM potassium chloride and 500 μM NAD+. Reactions were allowed to proceed for an incubation period of 1 hr at 37° C. Prior to quenching the reaction, 2 mM nicotinamide was added to 1× developing buffer (BML-KI176-1250, Enzo Lifesciences) in the deacetylation assay buffer (50 mM Tris-HCl [pH8.0], 1 mM MgCl2, 125 mM NaCl, 2.5 mM potassium chloride). At each time point, 50 μL of the reaction was removed and mixed with 50 μL of the developer solution. The quenched samples were kept at 37° C. for 45 min prior to fluorescence reading. The release of the fluorescent AMC was measured using a Tecan M200 PRO fluorometric plate reader with an excitation 360 nm and detection of emitted light in the range of […]. All reactions were normalized to control reactions in the absence of β-NAD (Ffinal=F+NAD−F-NAD).

As to “acetyl-PCSK9: Recombinant PCSK9 pretreated with pCAF and acetyl-CoA”, in the test with RAW 264.7 macrophages, the “activity of PCSK9 (LDLR, PCSK9 expression normalized to b-actin)” value is on record as “more active”.

`COCCCc1sc(-c2ccccc2)nc1C(=O)Nc1ccccc1-c1nc2cc(CN3CCCC3)cnc2s1` [SRT3025]: on SIRT1 [1], the LDL-cholesterol result is listed as “reducing LDL-cholesterol”, the PCSK9 secretion result is listed as “reduction in PCSK9 secretion” and the atherosclerosis result is reported as “protects against atherosclerosis”.

As to `O=C(Nc1ccccc1-c1cn2c(CN3CCNCC3)csc2n1)c1cnc2ccccc2n1` [SRT1720], the “fluorescence caused by deacetylation of fluorogenic PCSK9 peptide” value on SIRT1 [2] is on record as “increase in fluorescence”.
